Test results as given in patent US10010576B2, “Method of treatment” (Hexima Limited, priority 2014, dated 2018).

Key:
Trichophyton rubrum = assay: Antifungal growth inhibition assay in 96 well microtitre plates (A595); assay type: cell-based
Procedure: (§1) The inhibitory effects of the plant defensins on the growth of Trichophyton rubrum, T. interdigitale, Microsporum fulvum and C. albicans (obtained from the National Mycology Reference Centre, South Australia Pathology at the Women's and Children's Hospital, Adelaide, Australia) are measured essentially as described by Broekaert et al. (1990) FEMS Microbiol Lett 69:55-59. Spores of T. rubrum, T. interdigitale and M. fulvum are isolated from sporulating fungus growing on 1⁄2 strength Sabouraud dextrose agar (SDA). Spores were removed from the plates by the addition of 1⁄2 strength potato dextrose broth (PDB). C. albicans cells are grown in Yeast Peptone Broth (YPD) for 16 h. Spore and cell concentrations are measured using a hemocytometer. Antifungal assays are conducted in 96 well microtitre plates essentially as herein described. Wells are loaded with 20 μm L of filter sterilized (0.22 μm syringe filter, Millipore) defensin (10× stock for each final concentration) or water and 80 μm L of 5×10^4 spores/mL (T. rubrum, T. interdigitale, M. fulvum) or 5,000 cells/mL (C. albicans) in 1⁄2 strength PDB. The plates are incubated at 30° C. Fungal growth is assayed by measuring optical density at 595 nm ([…]) using a microtitre plate reader (SpectraMax Pro M2; Molecular Devices. Growth is allowed to proceed until the optical density (OD) of the fungus in the absence of any test defensin reached an OD of 0.2. Each test is performed in duplicate.

Microsporum fulvum = assay: as above; assay type: cell-based
Procedure: as §1

C. albicans = assay: as above; assay type: cell-based, Candida albicans
Procedure: as §1

[1] = system: Human monocytic lymphoma (U937) cells; assay type: cell-based
Procedure: Human monocytic lymphoma (U937) cells are cultured in RPMI-1640 medium. All culture media are supplemented with 5-10% v/v fetal calf serum, 100 U/ml of penicillin, and 100 μg/ml of streptomycin. Cell lines are cultured at 37° C. in a humidified atmosphere containing 5% v/v CO2. Adherent cell lines are detached from the flask by adding a mixture containing 0.25% v/v trypsin and […] EDTA. A flow cytometry-based propidium iodide (PI) uptake assay is performed to analyze the ability of plant defensins to permeabilize U937 cells (essentially as described in Poon et al, 2014). Briefly, cells are suspended to 1×10^6 cells/ml in 0.1% v/v BSA/RPMI-1640 and incubated with plant defensins (10 μM) at 37° C. for 30 min Samples are added to PBS containing a final concentration of 1 μg/ml PI and placed on ice. Samples are then analyzed immediately using the BD FACSCanto II Flow Cytometer and BD FACSDiva software v6.1.1. The resultant flow cytometry data is analyzed using FlowJo software v8.8.6. Cells are gated appropriately based on forward scatter and side scatter and cell permeabilization is defined by PI-positive staining.

[2] = system: Trichophyton rubrum, T. interdigitale, Microsporum fulvum and C. albicans; assay: Inhibition assays, summary across the range of fungal pathogens; assay type: cell-based; details: summary of Table 3
Procedure: as §1

[3] = Penetration through human nails (nail adapter, wetted cotton bud receptor, RP-HPLC); assay type: in vitro ADME
Procedure: Penetration of NaD1 through human nails was measured according to the method of Hui et al. (2002) J Pharm Sci 91(1):189-195. Human toenails were obtained from ScienceCare (USA) and washed with phosphate buffered saline (details, PBS) before being placed on a kimwipe that had been soaked in PBS for 3 h to rehydrate the nail. […]
The cotton bud in contact with the underside of the nail was removed after 24 h and every 24 h following. Protein that had passed through the nail was recovered from the cotton bud by washing twice with 500 μL of 0.1% v/v trifluoroacetic acid. Recovered protein was quantified using RP-HPLC.

T. interdigitale = assay: Antifungal growth inhibition assay in 96 well microtitre plates (A595); assay type: cell-based, Trichophyton interdigitale
Procedure: as §1

[4] = Day 3, 10 uL of 10% solution, 0.8 cm^2, daily application
[5] = Day 6, 10 uL of 10% solution, 0.8 cm^2, daily application
[6] = Day 9, 10 uL of 10% solution, 0.8 cm^2, daily application
[7] = Day 12, 10 uL of 10% solution, 0.8 cm^2, daily application
[8] = Day 15, 10 uL of 10% solution, 0.8 cm^2, daily application

Molecule	IC50 against T. rubrum (Trichophyton rubrum) [µg/mL]	IC50 against M. fulvum (Microsporum fulvum) [µg/mL]	IC50 against C. albicans (C. albicans) [µg/mL]	Cells permeabilized (PI-positive) [1]	Antifungal activity across the range of fungal pathogens [2]	IC50 against T. interdigitale (T. interdigitale) [µg/mL]	other results
HXL001: Class I plant defensin from Zea mays, SEQ ID NO:4 (RHCLSQSHRFKGLCMSSNNCANVCQTENFPGGECKAEGATRKCFCKKIC; HXL001 Zea mays)	>100	>100	35	less than 2%	did not display any activity at the concentrations tested		
Cc1cc(C2CCCCC2)n(O)c(=O)c1 [Ciclopirox, ciclopirox]							Cumulative amount through nail ([3]; human, 3 day, 10 %): 1 µg; Cumulative amount through nail, percent (line without head; fits percent of cumulative applied dose) ([3]; human, 3 day, 10 %): 0.03%; Cumulative amount through nail ([3]; human, 6 day, 10 %): 2 µg; Cumulative amount through nail, percent (line without head; fits percent of cumulative applied dose) ([3]; human, 6 day, 10 %): 0.03%; Cumulative amount through nail ([3]; human, 9 day, 10 %): 4 µg; Cumulative amount through nail, percent (line without head; fits percent of cumulative applied dose) ([3]; human, 9 day, 10 %): 0.04%; Cumulative amount through nail ([3]; human, 12 day, 10 %): 6 µg; Cumulative amount through nail, percent (line without head; fits percent of cumulative applied dose) ([3]; human, 12 day, 10 %): 0.05%; Cumulative amount through nail ([3]; human, 15 day, 10 %): 9 µg; Cumulative amount through nail, percent (line without head; fits percent of cumulative applied dose) ([3]; human, 15 day, 10 %): 0.06%
HXL003: Class I plant defensin from Triticum aestivum, SEQ ID NO:6 (ARDCTSQSHKFVGLCLSDRNCASVCLTEYFTGGKCDHRRCVCTKGC; HXL003 Triticum aestivum)		>100	>100				
OB1OCc2cc(F)ccc21 [Tavaborole, tavaborole]							Cumulative amount through nail [3, 4]: 60 µg; Cumulative amount through nail, percent (line without head; fits percent of cumulative applied dose) [3, 4]: 2.0%; Cumulative amount through nail [3, 5]: 220 µg; Cumulative amount through nail, percent (line without head; fits percent of cumulative applied dose) [3, 5]: 3.7%; Cumulative amount through nail [3, 6]: 610 µg; Cumulative amount through nail, percent (line without head; fits percent of cumulative applied dose) [3, 6]: 6.8%; Cumulative amount through nail [3, 7]: 1280 µg; Cumulative amount through nail, percent (line without head; fits percent of cumulative applied dose) [3, 7]: 10.7%; Cumulative amount through nail [3, 8]: 2240 µg; Cumulative amount through nail, percent (line without head; fits percent of cumulative applied dose) [3, 8]: 14.9%
HXP4: Artificial defensin variant, Loop1B from a Class I defensin replaces that of a Solanaceous Class II defensin, SEQ ID NO:21 (RECKTESHRFKGPCITKPPCRKACISEKFTDGHCSKILRRCLCTKPC; HXP4)				13%			
HXL005: Class I plant defensin from Taraxcum kok-saghyz, SEQ ID NO:8 (Table 1) (KMCQTTSHAFSCVNDSGCSGSCEKQGFASGKCDGVRRRCTCYKKC; HXL005 Taraxcum kok-saghyz)	3	5	22	~25%	the most effective plant defensins across the range of fungal pathogens	3.5	
HXL012: Class I plant defensin from Amaranthus retroflexus, SEQ ID NO:10 (RMCKAPSKLFRGMCGIRDSNCDSVCRAEGMAAGDCHGLRRRCICSRPC; HXL012 Amaranthus retroflexus)	2	18	42	less than 2%	intermediate activity	2	Nail penetration [3]: did not penetrate the nail
HXL002: Class I plant defensin from Triticum aestivum, SEQ ID NO:5 (RDCLSQSHKFKGACLSSSNCAAVCRTENFPDGECHTHNFARKCFCKRAC; HXL002 Triticum aestivum)		50	35	less than 2%			Inhibition of M. fulvum (Microsporum fulvum): very poor inhibitors; Inhibition of C. albicans (C. albicans): very poor inhibitors
HXL013: Class I plant defensin from Glycine max, SEQ ID NO:11 (KDCLTRRHGFQGRCLFDRQCAHVCRSDGFIGGQCRGPLRKCFCSRPC; HXL013 Glycine max)	22	5.5	20	5%	intermediate activity		
HXL009: Class I plant defensin from Zea mays, SEQ ID NO:9 (Table 1) (TVCMRHNNFYHGPCMSNKDCANSCVQHNLGVGGYCRGKIPFNKECMCTFEC; HXL009 Zea mays)		>100	>100	less than 2%	did not display any activity at the concentrations tested		
HXL035: Class I plant defensin from Picramnia pentandra, SEQ ID NO:2 (KVCTKPSKFFKGLCGFDRDCTVACKKEGLASGFCQNKGFFNVVCVCRKPC; HXL035 Picramnia pentandra)	2	2	18		the most effective plant defensins across the range of fungal pathogens	1	
C=C1CCN([C@H](C)[C@](O)(Cn2cncn2)c2ccc(F)cc2F)CC1 [Efinaconazole, efinaconazole]							Cumulative amount through nail ([3]; human, 1 day, 10 %): 0.4 µg; Cumulative amount through nail, percent (line without head; fits percent of applied dose) ([3]; human, 1 day, 10 %): 0.2%; Cumulative amount through nail ([3]; human, 2 day, 10 %): 0.7 µg; Cumulative amount through nail, percent (line without head; fits percent of applied dose) ([3]; human, 2 day, 10 %): 0.4%; Cumulative amount through nail ([3]; human, 3 day, 10 %): 1.3 µg; Cumulative amount through nail, percent (line without head; fits percent of applied dose) ([3]; human, 3 day, 10 %): 0.7%; Cumulative amount through nail ([3]; human, 4 day, 10 %): 1.6 µg; Cumulative amount through nail, percent (line without head; fits percent of applied dose) ([3]; human, 4 day, 10 %): 0.8%; Cumulative amount through nail ([3]; human, 6 day, 10 %): 2.6 µg; Cumulative amount through nail, percent (line without head; fits percent of applied dose) ([3]; human, 6 day, 10 %): 1.3%; Cumulative amount through nail ([3]; human, 9 day, 10 %): 4.0 µg; Cumulative amount through nail, percent (line without head; fits percent of applied dose) ([3]; human, 9 day, 10 %): 2.0%; Cumulative amount through nail ([3]; human, 12 day, 10 %): 5.4 µg; Cumulative amount through nail, percent (line without head; fits percent of applied dose) ([3]; human, 12 day, 10 %): 2.7%; Cumulative amount through nail ([3]; human, 15 day, 10 %): 6.5 µg; Cumulative amount through nail, percent (line without head; fits percent of applied dose) ([3]; human, 15 day, 10 %): 3.3%
HXL015: Class I plant defensin from Oryza sativa, SEQ ID NO:12 (RHCLSQSHRFKGMCVSSNNCANVCRTESFPDGECKSHGLERKCFCKKVC; HXL015 Oryza sativa)	10	12.5			intermediate activity	3.5	
